molecular target: T1, JNK1α1 (Homo sapiens, UniProt P45983); experiment: Coupled spectrophotometric (PK/LDH) JNK1α1 assay: % inhibition and Ki determination; type: biochemical; settings: @1 uM; read-out: % Inhibition JNK-1
T1 construct: catalytic domain containing amino acids 1-364 and N-terminal hexahistidine tag; hexahistidine (His6) (N); made in house; host or cells: E. coli BL21 (DE3)
How it was run: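 Initial rates were taken from the absorbance decrease at 340 nm at 30° C. Ki was fitted with a tight-binding model over 11 concentrations (top 100 μM); single-point inhibition was tested at 1 or 10 μM.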

T1 sequence (P45983 1-364): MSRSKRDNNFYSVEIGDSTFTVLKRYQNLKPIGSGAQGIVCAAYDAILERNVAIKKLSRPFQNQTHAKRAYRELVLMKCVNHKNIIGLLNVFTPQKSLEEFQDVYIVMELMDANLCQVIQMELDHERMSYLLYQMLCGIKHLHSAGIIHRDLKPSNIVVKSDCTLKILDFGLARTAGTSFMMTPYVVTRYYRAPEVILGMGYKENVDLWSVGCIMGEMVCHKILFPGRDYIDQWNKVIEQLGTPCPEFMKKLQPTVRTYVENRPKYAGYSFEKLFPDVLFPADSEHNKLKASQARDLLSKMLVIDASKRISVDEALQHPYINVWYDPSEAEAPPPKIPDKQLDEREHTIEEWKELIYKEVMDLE

| inhibition at 1 µM | SMILES |
| --- | --- |
| 21% | O=C(N[C@H](CO)Cc1ccccc1)c1ccc2cnc(NC3CCC3)nc2c1 [Example 420, N-[(1S)-1-benzyl-2-hydroxyethyl]-2-(cyclobutylamino)quinazoline-7-carboxamide] |

same assay, conditions: JNK-1

| Ki | SMILES |
| --- | --- |
| 147 nM | CCC[C@@H](CO)NC(=O)c1ccc2cnc(N[C@H]3CC[C@H](O)CC3)nc2c1 [Example 377, 2-[(trans-4-hydroxycyclohexyl)amino]-N-[(1S)-1-(hydroxymethyl)butyl]quinazoline-7-carboxamide] |
| 263 nM | CC(C)Nc1ncc2ccc(C(=O)NC(CO)c3ccccc3)cc2n1 (centres unmarked) [Example 385, N-(2-hydroxy-1-phenylethyl)-2-(isopropylamino)quinazoline-7-carboxamide] |
| 297 nM | CCC[C@@H](CO)NC(=O)c1ccc2cnc(NC3CCCC3)nc2c1 [Example 387, 2-(cyclopentylamino)-N-[(1S)-1-(hydroxymethyl)butyl]quinazoline-7-carboxamide] |
| 333 nM | CC(C)C[C@@H](CO)NC(=O)c1ccc2cnc(NC3CCCC3)nc2c1 [Example 390, 2-(cyclopentylamino)-N-[(1S)-1-(hydroxymethyl)-3-methylbutyl]quinazoline-7-carboxamide] |
| 365 nM | CC(C)C[C@@H](CO)NC(=O)c1ccc2cnc(NC(C)C)nc2c1 [Example 391, N-[(1S)-1-(hydroxymethyl)-3-methylbutyl]-2-(isopropylamino)quinazoline-7-carboxamide] |
| 391 nM | CC(C)Nc1ncc2ccc(C(=O)N[C@H](CO)c3ccccc3)cc2n1 [Example 394, N-[(1S)-2-hydroxy-1-phenylethyl]-2-(isopropylamino)quinazoline-7-carboxamide] |
| 428 nM | CC(C)C[C@@H](CO)NC(=O)c1ccc2cnc(NC3CCC3)nc2c1 [Example 397, 2-(cyclobutylamino)-N-[(1S)-1-(hydroxymethyl)-3-methylbutyl]quinazoline-7-carboxamide] |
| 447 nM | CCC[C@@H](CO)NC(=O)c1ccc2cnc(NC3CCC3)nc2c1 [Example 398, 2-(cyclobutylamino)-N-[(1S)-1-(hydroxymethyl)butyl]quinazoline-7-carboxamide] |
| 730 nM | CCC[C@@H](CO)NC(=O)c1ccc2cnc(NC(C)C)nc2c1 [Example 406, N-[(1S)-1-(hydroxymethyl)butyl]-2-(isopropylamino)quinazoline-7-carboxamide] |
| 772 nM | CC[C@H](C)[C@@H](CO)NC(=O)c1ccc2cnc(NC(C)C)nc2c1 [Example 409, N-[(1S,2S)-1-(hydroxymethyl)-2-methylbutyl]-2-(isopropylamino)quinazoline-7-carboxamide] |
| 1100 nM | CC[C@@H](CO)NC(=O)c1ccc2cnc(NC(C)C)nc2c1 [Example 411, N-[(1S)-1-(hydroxymethyl)propyl]-2-(isopropylamino)quinazoline-7-carboxamide] |
| 1490 nM | CC(C)Nc1ncc2ccc(C(=O)N[C@H](CO)Cc3ccccc3)cc2n1 [Example 415, N-((1S)-1-benzyl-2-hydroxyethyl]2-(isopropylamino)quinazoline-7-carboxamide] |
| 1550 nM | CC[C@@H](CO)NC(=O)c1ccc2cnc(NC3CCC3)nc2c1 [Example 416, 2-(cyclobutylamino)-N-[(1S)-1-(hydroxymethyl)propyl]quinazoline-7-carboxamide] |

More lines, now with the values behind:

| SMILES | Ki |
| --- | --- |
| CC[C@H](C)[C@@H](CO)NC(=O)c1ccc2cnc(N[C@H]3CC[C@H](O)CC3)nc2c1 [Example 378, 2-((trans-4-hydroxycyclohexyl)amino]-N-[(1S,2S)-1-(hydroxymethyl)-2-methylbutyl]quinazoline-7-carboxamide] | 160 nM |
| O=C(NC(CO)c1ccccc1)c1ccc2cnc(NC3CCCC3)nc2c1 (centres unmarked) [Example 379, 2-(cyclopentylamino)-N-(2-hydroxy-1-phenylethyl)quinazoline-7-carboxamide] | 177 nM |
| CC[C@H](C)[C@@H](CO)NC(=O)c1ccc2cnc(NC3CCCCC3)nc2c1 [Example 380, 2-(cyclohexylamino)-N-[(1S,2S)-1-(hydroxymethyl)-2-methylbutyl]quinazoline-7-carboxamide] | 187 nM |
| CC(C)[C@@H](CO)NC(=O)c1ccc2cnc(N[C@H]3CC[C@H](O)CC3)nc2c1 [Example 382, 2-[(trans-4-hydroxycyclohexyl)amino]-N-[(1S)-1-(hydroxymethyl)-2-methylpropyl]quinazoline-7-carboxamide] | 195 nM |
| O=C(NC(CO)c1ccccc1)c1ccc2cnc(NC3CCC3)nc2c1 (centres unmarked) [Example 383, 2-(cyclobutylamino)-N-(2-hydroxy-1-phenylethyl)quinazoline-7-carboxamide] | 200 nM |
| O=C(N[C@H](CO)c1ccccc1)c1ccc2cnc(NC3CCCC3)nc2c1 [Example 384, 2-(cyclopentylamino)-N-[(1S)-2-hydroxy-1-phenylethyl]quinazoline-7-carboxamide] | 257 nM |
| O=C(N[C@H](CO)CC1CCCCC1)c1ccc2cnc(N[C@H]3CC[C@H](O)CC3)nc2c1 [Example 386, N-[(1S)-2-cyclohexyl-1-(hydroxymethyl)ethyl]-2-[(trans-4-hydroxycyclohexyl)amino]quinazoline-7-carboxamide] | 271 nM |
| CC[C@@H](CO)NC(=O)c1ccc2cnc(NC3CCCCC3)nc2c1 [Example 388, 2-(cyctohexylamino)-N-[(1S)-1-(hydroxymethyl)propyl]quinazoline-7-carboxamide] | 303 nM |
| CC(C)[C@@H](CO)NC(=O)c1ccc2cnc(NC3CCCCC3)nc2c1 [Example 389, 2-(cyclohexylamino)-N-[(1S)-1-(hydroxymethyl)-2-methylpropyl]quinazoline-7-carboxamide] | 318 nM |
| O=C(N[C@H](CO)c1ccccc1)c1ccc2cnc(NC3CCC3)nc2c1 [Example 392, 2-(cyclobutylamino)-N-[(1S)-2-hydroxy-1-phenylethyl]quinazoline-7-carboxamide] | 385 nM |
| O=C(N[C@H](CO)CC1CCCCC1)c1ccc2cnc(NC3CCCCC3)nc2c1 [Example 393, 2-(cyclohexylamino)-N-[(1S)-2-cyclohexyl-1-(hydroxymethyl)ethyl]quinazoline-7-carboxamide] | 387 nM |
| O=C(N[C@H](CO)Cc1ccccc1)c1ccc2cnc(NC3CCCCC3)nc2c1 [Example 395, N-[(1S)-1-benzyl-2-hydroxyethyl]-2-(cyclohexylamino)quinazoline-7-carboxamide] | 422 nM |
| CC[C@H](C)[C@@H](CO)NC(=O)c1ccc2cnc(NC3CCCC3)nc2c1 [Example 396] | 424 nM |
| C[C@@H](CO)NC(=O)c1ccc2cnc(NC3CCCCC3)nc2c1 [Example 399, 2-(cyclohexylamino)-N-[(1S)-2-hydroxy-1-methylethyl]quinazoline-7-carboxamide] | 461 nM |
| O=C(NC1(CO)CCCC1)c1ccc2cnc(N[C@H]3CC[C@H](O)CC3)nc2c1 [Example 400, 2-[(trans-4-hydroxycyclohexyl)amino]-N-[1-(hydroxymethyl)cyclopentyl]quinazoline-7-carboxamide] | 478 nM |
| O=C(NC1(CO)CCCC1)c1ccc2cnc(NC3CCCCC3)nc2c1 [Example 401, 2-(cyclohexylamino)-N-[1-(hydroxymethyl)cyclopentyl]quinazoline-7-carboxamide] | 490 nM |
| O=C(N[C@H](CO)Cc1ccccc1)c1ccc2cnc(N[C@H]3CC[C@H](O)CC3)nc2c1 [Example 402, N-[(1S)-1-benzyl-2-hydroxyethyl]-2-[(trans-4-hydroxycyclohexyl)amino]quinazoline-7-carboxamide] | 605 nM |
| C[C@@H](CO)NC(=O)c1ccc2cnc(N[C@H]3CC[C@H](O)CC3)nc2c1 [Example 403, 2-[(trans-4-hydroxycyclohexyl)amino]-N-[(1S)-2-hydroxy-1-methylethyl]quinazoline-7-carboxamide] | 637 nM |
| O=C(N[C@@H]1COC[C@H]1O)c1ccc2cnc(N[C@H]3CC[C@H](O)CC3)nc2c1 [Example 404, 2-[(trans-4-hydroxycyclohexyl)amino]-N-[(3R,4S)-4-hydroxytetrahydrofuran-3-yl]quinazoline-7-carboxamide] | 667 nM |
| O=C(N[C@@H]1COC[C@H]1O)c1ccc2cnc(NC3CCCCC3)nc2c1 [Example 405, 2-(cyclohexylamino)-N-[(3R,4S)-4-hydroxytetrahydrofuran-3-yl]quinazoline-7-carboxamide] | 722 nM |
| CC(C)[C@@H](CO)NC(=O)c1ccc2cnc(NC3CCCC3)nc2c1 [Example 407, 2-(cyclopentylamino)-N-[(1S)-1-(hydroxymethyl)-2-methylpropyl]quinazoline-7-carboxamide] | 735 nM |
| O=C(N[C@H](CO)Cc1ccccc1)c1ccc2cnc(NC3CCCC3)nc2c1 [Example 408, N-[(1S)-1-benzyl-2-hydroxyethyl]-2-(cyclopentylamino)quinazoline-7-carboxamide] | 743 nM |
| CC(C)(CO)NC(=O)c1ccc2cnc(NC3CCCCC3)nc2c1 [Example 413, 2-(cyclohexylamino)-N-(2-hydroxy-1,1-dimethylethyl)quinazoline-7-carboxamide] | 1270 nM |
| CC[C@H](C)[C@@H](CO)NC(=O)c1ccc2cnc(NC3CCC3)nc2c1 [Example 414, 2-(cyclobutylamino)-N-[(1S,2S)-1-(hydroxymethyl)-2-methylbutyl]quinazoline-7-carboxamide] | 1310 nM |
| O=C(N[C@H](CO)Cc1c[nH]cn1)c1ccc2cnc(N[C@H]3CC[C@H](O)CC3)nc2c1 [Example 417, 2-[(trans-4-hydroxycyclohexyl)amino]-N-[(1S)-2-hydroxy-1-(1H-imidazol-4-ylmethyl)ethyl]quinazoline-7-carboxamide] | 1680 nM |
| C[C@@H](CO)NC(=O)c1ccc2cnc(NC3CCCC3)nc2c1 [Example 418, 2-(cyclopentylamino)-N-[(1S)-2-hydroxy-1-methylethyl]quinazoline-7-carboxamide] | 1720 nM |
| O=C(N[C@H](CO)CC1CCCCC1)c1ccc2cnc(NC3CCCC3)nc2c1 [Example 419, N-[(1S)-2-cyclohexyl-1-(hydroxymethyl)ethyl]-2-(cyclopentylamino)quinazoline-7-carboxamide] | 3030 nM |

Reference: US7998978B2 (Pfizer Inc., priority 2006, dated 2011)
